Legend:
[1] = tested on: OTC; test: siRNA knockdown of JAK/STAT/IRF genes in hepatocytes, OTC mRNA; assay type: cell-based, human; conditions: 10 nM siRNA plus 0.03 nM JAK1 siRNA, FIG. 27C
Text: To confirm that JAK1 inhibition is necessary for OTC and CPS1 gene expression increase, JAK1, JAK2, and JAK3 expression was knocked down using the siRNA methods previously described in Example 1 (JAK1 siRNA Dharmacon #M-003145-02-0005; JAK2 siRNA Dharmacon #M-003146-02-0005; JAK3 siRNA Dharmacon #M-003147-01-0005). The cells were harvest for mRNA collection and quantification as previously described.
In addition, STAT5B is a JAK1 signal transducer and transcription factor activated by JAK1. STAT5B was knocked down in hepatocytes using siRNA (Dharmacon cat #M-010539-02-0005) as previously described in Example 1. The cells were harvest for mRNA collection and quantification as previously described.
To confirm the role of JAK1 and investigate the role of other signaling proteins and transcription factors in OTC and CPS1 expression, a panel of additional genes were knocked down with siRNA alone or in combination with JAK1. In particular, JAK2 was knockdown alone or in combination with JAK1. The combinations are shown in FIG. 26A and FIG. 26B. siRNA used to knock down JAK1 and JAK2 were: JAK1 siRNA Dharmacon #M-003145-02-0005; JAK2 siRNA Dharmacon #M-003146-02-0005. OTC and CPS1 mRNA expression was normalized to B2M. The assay was performed in triplicate in three donor hepatocyte cell lines: 371, 171, and 511A.
Cells were harvested after siRNA treatment for mRNA quantification. JAK1, OTC, and CPS1 mRNA levels were normalized to GUSB.

[2] = tested on: OTC; test: RNA-seq of compound-treated primary human hepatocytes, OTC expression; assay type: cell-based; conditions: for Relative OTC level vs Untreated (±Standard Deviation): primary human hepatocytes, triplicate (Table 14)
[3] = tested on: ARG1; test: RNA-seq of compound-treated primary human hepatocytes, ARG1 expression; assay type: cell-based
[4] = tested on: urea cycle genes; test: RNA-seq of primary human hepatocytes, compounds that modulate multiple urea cycle-related genes; assay type: cell-based; conditions: primary human hepatocytes, RNA-seq
Description: To identify small molecules that modulate urea cycle enzymes, primary human hepatocytes were prepared as a monoculture, and at least one small molecule compound was applied to the cells.
RNA-seq was performed to determine the effects of the compounds on the expression of urea cycle enzymes in hepatocytes. Fold change was calculated by dividing the level of expression in the cell system that had been perturbed by the level of expression in an unperturbed system. Changes in expression having a p-value ≤0.05 were considered significant.
Significance was defined as an FPKM ≥1, a log 2 (fold change) ≥0.5, and a q-value of ≤0.05 for selected gene target.

[5] = tested on: CPS1; test: RNA-seq of compound-treated primary human hepatocytes, CPS1 expression; assay type: cell-based
[6] = tested on: ASL; test: RNA-seq of compound-treated primary human hepatocytes, ASL expression; assay type: cell-based; conditions: for Relative ASL level vs Untreated (±Standard Deviation): triplicate (Table 25, FIG. 17)
[7] = tested on: SLC25A15; test: RNA-seq of compound-treated primary human hepatocytes, SLC25A15 expression; assay type: cell-based; conditions: for Relative SLC25A15 level vs Untreated (±Standard Deviation): primary human hepatocytes, triplicate (Table 24, FIG. 16A-B)
[8] = tested on: ASS1; test: RNA-seq of compound-treated primary human hepatocytes, ASS1 expression; assay type: cell-based; conditions: for Relative ASS1 level vs Untreated (±Standard Deviation): primary human hepatocytes
[9] = tested on: CPS1; test: JAK inhibitors at 0.3 and 3 μM in primary human hepatocytes, CPS1 mRNA fold change; assay type: cell-based; conditions: fold change vs DMSO
Description: (§1) Additional small molecules that inhibit JAK1, JAK2, JAK3, or a combination of the JAK proteins were tested in primary human hepatocytes as described in Example 2. JAK inhibitors were tested in triplicate at 0.3 μM and 3 μM. The results are shown as the fold change (mRNA FC) in the mRNA levels of OTC and CPS1 genes after treatment compared to an untreated control (DMSO) and the standard deviation (SD).

[10] = tested on: CPS1; test: JAK1 inhibitor dose titration in hepatocytes of donors A and B, CPS1 mRNA normalized to B2M; assay type: cell-based, human; conditions: for CPS1 mRNA FC, Donor A / CPS1 mRNA FC, Donor B: normalized to B2M
Description: (§2) Next, two JAK1 inhibitors were tested at increasing concentrations in a dose titration assy. Hepatocytes from two different donors (A and B) were incubated with the various concentrations of upadacitinib or oclacitinib maleate and harvested for mRNA analysis. OTC and CPS1 mRNA were normalized to house keeping gene B2M gene expression.

[11] = tested on: chromatin domain upstream of the OTC gene; test: ATAC-seq of the OTC insulated neighborhood in inhibitor-treated hepatocytes; conditions: 17 hours of inhibitor treatment
Description: Hepatocytes were seeded overnight, then the serum and other factors were removed. After 2-3 hours, the cells were treated with the compound and incubated overnight. The cells were harvested and the nuclei were prepared for the transposition reaction. […] After 9-12 cycles of PCR amplification, libraries were sequenced on an Illumina HiSeq 2000. PCR was performed using barcoded primers with extension at 72° C. for 5 minutes, PCR, then the final PCR product was sequenced.
All obtained reads from each sample were trimmed using trim galore 0.4.1 requiring Phred score ≥20 and read length ≥30 for data analysis. The trimmed reads were mapped against the human genome (hg19 build) using Bowtie2 (version 2.2.9) with the parameters: -t -q -N 1 -L 25 -X 2000 no-mixed no-discordant. All unmapped reads, non-uniquely mapped reads and PCR duplicates were removed. All the ATAC-seq peaks were called using MACS2 with the parameters --nolambda -nomodel -q 0.01 --SPMR. The ATAC-seq signal was visualized in the UCSC genome browser. ATAC-seq peaks that were at least 2 kb away from annotated promoters (RefSeq, Ensemble and UCSC Known Gene databases combined) were selected as distal ATAC-seq peaks.
The ATAC-seq experiment was done in triplicate.

[12] = tested on: OTC; test: JAK inhibitors at 0.3 and 3 μM in primary human hepatocytes, OTC mRNA fold change; assay type: cell-based; conditions: fold change vs DMSO
Description: as §1

[13] = tested on: OTC; test: JAK1 inhibitor dose titration in hepatocytes of donors A and B, OTC mRNA normalized to B2M; assay type: cell-based, human; conditions: for OTC mRNA FC, Donor A / OTC mRNA FC, Donor B: normalized to B2M
Description: as §2

[14] = tested on: OTC; test: OTC expression modulated by compounds, OTC/GeoMean of housekeeping genes, DMSO = 1 (Table 3A); assay type: cell-based, human; conditions: 10 uM final concentration
[15] = Example 11, relative mRNA vs DMSO
[16] = primary human hepatocytes, RNA-seq
[17] = both donor cell lines (A and B)

STAT1 (DNA NATTTCCNGGAAAT; target site or template, no part of the molecule; chemistry not given here)
OTC expression after knockdown in combination with JAK1 [1]: increased

Cc1cc(-c2nc(-c3ccc(OC(F)(F)F)cc3)no2)nn1Cc1ccnc(N2CCN(C3CC3)CC2)c1 [BAY 87-2243]
Relative OTC level vs Untreated (±Standard Deviation) ([2]; 0.3 uM): 3.33 ± 0.60 | Relative OTC level vs Untreated (±Standard Deviation) ([2]; 1 uM): 5.61 ± 3.28 | Relative OTC level vs Untreated (±Standard Deviation) ([2]; 3 uM): 7.03 ± 3.84 | Relative OTC level vs Untreated (±Standard Deviation) ([2]; 10 uM): 6.18 ± 1.58 | increase in OTC gene expression (Table 14, FIG. 6) [2, 15]: greatest increase | Relative ARGI level vs Untreated (±Standard Deviation) ([3]; 0.3 μM, primary human hepatocytes, triplicate (Table 17, FIG. 9)): 1.36 ± 0.43 | Relative ARGI level vs Untreated (±Standard Deviation) ([3]; 1 μM, primary human hepatocytes, triplicate (Table 17, FIG. 9)): 1.98 ± 0.29 | Relative ARGI level vs Untreated (±Standard Deviation) ([3]; 3 μM, primary human hepatocytes, triplicate (Table 17, FIG. 9)): 2.06 ± 0.19 | Relative ARGI level vs Untreated (±Standard Deviation) ([3]; 10 μM, primary human hepatocytes, triplicate (Table 17, FIG. 9)): 2.03 ± 0.28 | Relative ARGI level vs Untreated (±Standard Deviation) ([3]; 10 uM, primary human hepatocytes, triplicate (Table 18, FIG. 10)): 5.64 ± 3.44 | increase in ARG1 gene expression (Tables 17, 18, FIG. 9, 10) [3, 15]: greatest increase | Fold change (Log 2) vs untreated, ARG1 expression ([3]; primary human hepatocytes, RNA-seq (Table 7)): 1.09 Log 2 | number of urea cycle genes whose expression was significantly up-regulated [4]: three | Up-regulated Genes ([4]; urea cycle-related genes significantly increased (Table 10)): CPS1, ASL, ARG1 | Relative CPS1 level vs Untreated (±Standard Deviation) ([5]; 0.3 uM, primary human hepatocytes, triplicate (Table 20, FIG. 12)): 3.32 ± 0.53 | Relative CPS1 level vs Untreated (±Standard Deviation) ([5]; 1 uM, primary human hepatocytes, triplicate (Table 20, FIG. 12)): 5.11 ± 1.08 | Relative CPS1 level vs Untreated (±Standard Deviation) ([5]; 3 μM, primary human hepatocytes, triplicate (Table 19, FIG. 11)): 1.41 ± 0.06 | Relative CPS1 level vs Untreated (±Standard Deviation) ([5]; 3 uM, primary human hepatocytes, triplicate (Table 20, FIG. 12)): 5.48 ± 3.12 | Relative CPS1 level vs Untreated (±Standard Deviation) ([5]; 10 uM, primary human hepatocytes, triplicate (Table 20, FIG. 12)): 5.69 ± 2.90 | increase in CPS1 gene expression (Tables 19, 20, FIG. 11, 12) [5, 15]: greatest increase | CPS1 expression, Fold change (Log 2) vs untreated [5, 16]: 1.81 Log 2 | Relative ASL level vs Untreated (±Standard Deviation) ([6]; 0.3 uM, primary human hepatocytes): 3.02 ± 0.25 | Relative ASL level vs Untreated (±Standard Deviation) ([6]; 1 uM, primary human hepatocytes): 7.50 ± 1.10 | Relative ASL level vs Untreated (±Standard Deviation) ([6]; 3 uM, primary human hepatocytes): 11.42 ± 6.31 | Relative ASL level vs Untreated (±Standard Deviation) ([6]; 10 uM, primary human hepatocytes): 12.28 ± 4.98 | increase in ASL gene expression (Table 25, FIG. 17) [6, 15]: greatest increase | ASL expression, Fold change (Log 2) vs untreated [6, 16]: 0.58 Log 2 | Relative SLC25A15 level vs Untreated (±Standard Deviation) ([7]; 0.3 μM): 2.85 ± 0.23 | Relative SLC25A15 level vs Untreated (±Standard Deviation) ([7]; 1 μM): 2.40 ± 0.22 | Relative SLC25A15 level vs Untreated (±Standard Deviation) ([7]; 3 μM): 2.89 ± 0.37 | Relative SLC25A15 level vs Untreated (±Standard Deviation) ([7]; 10 μM): 2.70 ± 0.19 | Increase in SLC25A15 gene expression (qualitative) [7, 15]: greatest increase | Relative ASS1 level vs Untreated (±Standard Deviation) ([8]; 0.3 μM, triplicate (Table 15, FIG. 7)): 2.79 ± 0.22 | Relative ASS1 level vs Untreated (±Standard Deviation) ([8]; 0.3 uM, triplicate (Table 15, FIG. 8)): 2.11 ± 0.33 | Relative ASS1 level vs Untreated (±Standard Deviation) ([8]; 1 μM, triplicate (Table 15, FIG. 7)): 3.10 ± 0.47 | Relative ASS1 level vs Untreated (±Standard Deviation) ([8]; 01 uM, triplicate (Table 15, FIG. 8)): 2.61 ± 0.57 | Relative ASS1 level vs Untreated (±Standard Deviation) ([8]; 3 μM, triplicate (Table 15, FIG. 7)): 2.38 ± 0.01 | Relative ASS1 level vs Untreated (±Standard Deviation) ([8]; 03 uM, triplicate (Table 15, FIG. 8)): 2.87 ± 1.80 | Relative ASS1 level vs Untreated (±Standard Deviation) ([8]; 10 μM, triplicate (Table 15, FIG. 7)): 2.99 ± 0.36 | Relative ASS1 level vs Untreated (±Standard Deviation) ([8]; 10 uM, triplicate (Table 15, FIG. 8)): 2.86 ± 1.48 | increase in ASS1 gene expression (Tables 15, 16, FIG. 7, 8) [8, 15]: greatest increase

oclacitinib maleate
CPS1 mRNA FC ([9]; 0.3 uM): 1 | CPS1 mRNA FC ([9]; 3 uM): 1.69 | CPS1 mRNA FC, Donor A ([10]; 0.1 uM): 1.61 | CPS1 mRNA FC, Donor B ([10]; 0.1 uM): 4.60 | CPS1 mRNA FC, Donor A ([10]; 0.3 uM): 2.37 | CPS1 mRNA FC, Donor B ([10]; 0.3 uM): 4.50 | CPS1 mRNA FC, Donor A ([10]; 1 uM): 3.12 | CPS1 mRNA FC, Donor B ([10]; 1 uM): 3.34 | CPS1 mRNA FC, Donor A ([10]; 3 uM): 4.82 | CPS1 mRNA FC, Donor B ([10]; 3 uM): 2.57 | CPS1 mRNA FC, Donor A ([10]; 10 uM): 5.99 | CPS1 mRNA FC, Donor B ([10]; 10 uM): 1.90 | CPS1 mRNA expression, dose titration [10, 17]: dose dependent increase | newly accessible chromatin domain upstream of the OTC gene (ATAC-seq) [11]: newly accessible chromatin domain | OTC mRNA FC ([12]; 0.3 uM): 1.32 | OTC mRNA FC ([12]; 3 uM): 3.14 | OTC mRNA FC, Donor A ([13]; 0.1 uM): 1.97 | OTC mRNA FC, Donor B ([13]; 0.1 uM): 2.46 | OTC mRNA FC, Donor A ([13]; 0.3 uM): 2.76 | OTC mRNA FC, Donor B ([13]; 0.3 uM): 4.28 | OTC mRNA FC, Donor A ([13]; 1 uM): 4.79 | OTC mRNA FC, Donor B ([13]; 1 uM): 5.97 | OTC mRNA FC, Donor A ([13]; 3 uM): 8.92 | OTC mRNA FC, Donor B ([13]; 3 uM): 11.00 | OTC mRNA FC, Donor A ([13]; 10 uM): 11.65 | OTC mRNA FC, Donor B ([13]; 10 uM): 11.46 | OTC mRNA expression, dose titration [13, 17]: dose dependent increase

Cc1cc(Nc2nc(N[C@@H](C)c3ncc(F)cn3)ncc2Cl)[nH]n1 [AZD1480]
CPS1 mRNA FC ([9]; 0.3 uM): 1.1 | CPS1 mRNA FC ([9]; 3 uM): 1.77 | Max Value (OTC/GeoMean of HKs; DMSO = 1) [14]: 1.46 | OTC mRNA FC ([12]; 0.3 uM): 1.63 | OTC mRNA FC ([12]; 3 uM): 2.3
